Assay results as given in PubChem BioAssay (NCI).
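All cell lines were grown in 96-well plates and treated with compound for 48 hours. TGI marks complete inhibition of growth.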

Columns and labels:
Test in all cases: inhibition of tumour cell growth, NCI panel, 48 h
EKVX NSCLC = system: EKVX NSCLC
CAKI-1 renal = system: CAKI-1 renal
SF-268 CNS = system: SF-268 CNS
SNB-19 CNS = system: SNB-19 CNS
NCI-H226 lung = system: NCI-H226 lung
SNB-75 CNS = system: SNB-75 CNS
SF-539 CNS = system: SF-539 CNS
KM12 colon = system: KM12 colon
UO-31 renal = system: UO-31 renal
HOP-62 NSCLC = system: HOP-62 NSCLC
HCT-116 colon = system: HCT-116 colon
CCRF-CEM leukemia = system: CCRF-CEM leukemia
OVCAR-8 ovarian = system: OVCAR-8 ovarian
HCT-15 colon = system: HCT-15 colon
COLO 205 colon = system: COLO 205 colon
M19-MEL melanoma = system: M19-MEL melanoma
K-562 leukemia = system: K-562 leukemia
OVCAR-5 ovarian = system: OVCAR-5 ovarian
OVCAR-3 ovarian = system: OVCAR-3 ovarian
DLD-1 colon = system: DLD-1 colon

Compound	TGI (EKVX NSCLC) [µM]	TGI (CAKI-1 renal) [µM]	TGI (SF-268 CNS) [µM]	TGI (SNB-19 CNS) [µM]	TGI (NCI-H226 lung) [µM]	TGI (SNB-75 CNS) [µM]	TGI (SF-539 CNS) [µM]	TGI (KM12 colon) [µM]	TGI (UO-31 renal) [µM]	TGI (HOP-62 NSCLC) [µM]	TGI (HCT-116 colon) [µM]	TGI (CCRF-CEM leukemia) [µM]	TGI (OVCAR-8 ovarian) [µM]	TGI (HCT-15 colon) [µM]	TGI (COLO 205 colon) [µM]	TGI (M19-MEL melanoma) [µM]	TGI (K-562 leukemia) [µM]	TGI (OVCAR-5 ovarian) [µM]	TGI (OVCAR-3 ovarian) [µM]	TGI (DLD-1 colon) [µM]
O=C(/C=C/c1ccsc1)c1ccc(Cl)s1	> 100	> 100	> 100	> 100	> 100	> 100	> 100	35.9	> 100	> 100	60.5	63.9	> 100	> 100	> 100					
Cn1nc2ccc3nccc(NCCNCCCl)c3c2n1	> 100		> 100	> 100	> 100	> 100	> 100	> 100	> 100	> 100	> 100	> 100	> 100	> 100	> 100	> 100	> 100	> 100	> 100	> 100
O=C(O)C1C2CCC(C2)C1c1ccccc1 (configuration not stated)	> 100	> 100	> 100	> 100	> 100	> 100	> 100	> 100	> 100	> 100	> 100	> 100	> 100	> 100	> 100		> 100	> 100	> 100	
CC1=NN(C(=O)c2ccccc2)C(=O)C1N=Nc1ccccc1C(=O)O (configuration not stated)	> 100	> 100	> 100	> 100	> 73.7	> 20.7	> 100	> 100	21.8	> 100	> 100	> 50.7	> 100	> 100	> 100	> 100	> 29.4	> 100	> 27.5	> 100
O=C(NN1C(=O)C(Cl)C1c1ccc([N+](=O)[O-])cc1)c1ccccc1O (configuration not stated)	> 100		> 100	> 100		> 100	> 100	> 100	> 100	> 100	> 100	> 100	> 100		> 100	> 100	> 100	> 100	> 100	
CCOC(=O)CCc1c(C)c2c(O)cc(O)cc2oc1=O	> 100	> 100	> 100	> 100	> 100	> 100	> 100	> 100	> 100	> 100	> 100	> 100	> 100	> 100	> 100	> 100	> 100	> 100	> 100	> 100
COc1cc(C2c3cc4c(cc3[C@@H](Nc3ccc(N5CCOCC5)cc3)C3COC(=O)[C@H]23)OCO4)cc(OC)c1O (some centres not stated)	5.06	2.63	14.2	2.72	2.9	78.2	2.32		5.16	0.829	13.7	0.773	3.95	2.59	4.94	22.8	5.01	22.1	13.2	4.12
N/C(=N\N=C/c1cc(Cl)cc(Cl)c1O)NO	37.6	10.1	> 100	> 53.9	9.82	9.58	8.34	22.4	13.7	12.5	12.3		19	17.8	> 43.7	27	> 46.3	33.5	53.6	> 100
CCOC(=O)C1CCn2c(nc3c(=O)n(C)c(=O)n(C)c32)S1 (configuration not stated)	> 100	> 100	> 100	> 100	> 100	> 100	> 100			> 100	> 100	> 100	> 100	> 100			> 100	> 100	> 100	> 100
